Common to all, as to assay: Inhibition of in vitro proliferation of tumor cells (CellTiter Glo)
What all share (type): cell-based, human
For orientation: ATP-based viability assays read luminescence as a measure of living cells.

The subject of experiment [1] is Calu-6. The note with it: Calu-6, 120 h incubation. On the procedure: (§1) Human-derived tumor cells in logarithmic growth phase were taken, trypsin-digested and resuspended using fresh complete culture medium, counted and adjusted to an appropriate concentration, and added into 96-well cell culture plate at 100 μL/well. The cell culture plate was placed in a 37° C., 5% CO2 incubator and incubated overnight. On the next day, different concentrations of ADC samples to be tested (with the highest final concentration of 1 μM, and 4-fold gradient dilution) or buffer control were added to the corresponding wells of the cell culture plate, and continued to be incubated in a CO2 incubator for 120 h. After equilibrated to room temperature, the test plate was analyzed by using a CellTiter Glo assay kit (Promega, G7558) and a multifunctional enzyme labeling instrument (Enspire 2300, PerkinElmer) to detect luminescence readings. The cellular inhibition rate was calculated according to the following equation: inhibition rate (%)=(1−(RLUADC−RLUblank)/(RLUbuffer−RLUblank))×100%, wherein, RLU represents Relative Luminescence Units. XLFit was utilized to plot the pharmacodynamic inhibition rate curve and to calculate the IC50 values (see Tables 4 and 5).

The test system of experiment [2] is NCI-N87. The note with it: NCI-N87, 120 h incubation. On the procedure:
as §1

Experiment [3] concerns HepG2. The following applies: HepG2, 120 h incubation. On the procedure:
as §1

The subject of experiment [4] is NCI-H1975. The note with it: NCI-H1975, 120 h incubation. On the procedure: as §1

This is an account of results in US20260041780A1, “ANTIBODY-DRUG CONJUGATE AND USE THEREOF” (MINGHUI PHARMACEUTICAL (HANGZHOU) LIMITED, priority 2022, published 2026).

In general, IC50 refers to the concentration needed to halve the response being measured. Read a low IC50 as greater potency in that assay.

Turning to “Control ADC2: antibody Ifinatamab conjugated with linker-payload MC-GGFG-DXd”, the IC50 in experiment [1] is 0.126 µM; in experiment [2] it was 0.288 µM; in experiment [3], 0.22 µM; in experiment [4], 0.65 µM.
